This assay deals with BDF1 mice, M5076 sarcoma ip, median survival T/C. The experiment in a line: NCI In Vivo Anticancer Drug Screen. Data for tumor model Sarcoma M5076 (intraperitoneal) in B6D2F1 (BDF1) mice. The conditions noted are these: endpoint: median survival time, higher = longer survival. On the procedure: The antitumor activity of compounds was measured in mice bearing transplantable tumors. Survival or tumor size were measured and the results are expressed as the measurement made in the treated group (T) divided by the measurement made in the vehicle treated control group (C). The tumor model used in this assay is Sarcoma M5076 (intraperitoneal) in B6D2F1 (BDF1) mice

The mark [1] stands for this setting: dose: 1.56 mg/kg/injection, schedule: Q01DX009 (ip), vehicle: Klucel (hydroxypropylcellulose) (HPC).
The mark [2] stands for this setting: dose: 3.12 mg/kg/injection, schedule: Q01DX009 (ip), vehicle: Klucel (hydroxypropylcellulose) (HPC).
[3] abbreviates: dose: 6.25 mg/kg/injection, schedule: Q01DX009 (ip), vehicle: Klucel (hydroxypropylcellulose) (HPC).
[4] abbreviates: dose: 12.5 mg/kg/injection, schedule: Q01DX009 (ip), vehicle: Klucel (hydroxypropylcellulose) (HPC).

Where “and” joins values, the source holds several entries; their conditions need not be identical. Equal values may be shown once. Inconclusive results and toxic doses are left out.

This note sets out measurements from PubChem BioAssay AID286 (DTP/NCI, 2004).

For `COc1cc2c(cc1OC)[C@@H]1C(=O)c3ccc4c(c3O[C@@H]1CO2)C[C@H](C(C)C)O4`, the T/C is 112 % of control and 114 % of control under setting [1]; 110 % of control under setting [2]; 122 % of control under setting [3]; 124 % of control under setting [4].

Consider `CC[C@]1(O)C[C@H]2CN(CCc3c([nH]c4ccccc34)[C@@](C(=O)OC)(c3cc4c(cc3OC)N(C=O)[C@H]3[C@@](O)(C(=O)OC)[C@H](OC(C)=O)[C@]5(CC)C=CCN6CC[C@]43[C@@H]65)C2)C1`, for which the T/C was 112 % of control and 124 % of control (dose: 0.25 mg/kg/injection, schedule: Q04DX005 (ip), vehicle: saline); 164 % of control (dose: 0.5 mg/kg/injection, schedule: Q04DX005 (ip), vehicle: saline); 228 % of control and 156 % of control (dose: 1.0 mg/kg/injection, schedule: Q04DX005 (ip), vehicle: saline).

As to `COC(=O)Nc1ccc(Cc2ccc(NC(=O)OC)cc2)cc1`, the T/C was 89 % of control (dose: 50.0 mg/kg/injection, schedule: Q04DX004 (ip), vehicle: saline with Tween-80); 103 % of control (dose: 100.0 mg/kg/injection, schedule: Q04DX004 (ip), vehicle: saline with Tween-80); 118 % of control (dose: 200.0 mg/kg/injection, schedule: Q04DX004 (ip), vehicle: saline with Tween-80); 185 % of control (dose: 400.0 mg/kg/injection, schedule: Q04DX004 (ip), vehicle: saline with Tween-80).

As to `C[C@@]12C(=O)OC(=O)[C@]1(C)[C@H]1CC[C@@H]2O1`, the T/C was 115 % of control (dose: 0.25 mg/kg/injection, schedule: Q01DX009 (ip), vehicle: acetone); 120 % of control (dose: 0.5 mg/kg/injection, schedule: Q01DX009 (ip), vehicle: acetone); 113 % of control (dose: 62.5 micrograms/kg/injection, schedule: Q01DX009 (ip), vehicle: acetone); 115 % of control (dose: 250.0 micrograms/kg/injection, schedule: Q01DX009 (ip), vehicle: acetone); 150 % of control (dose: 1000.0 micrograms/kg/injection, schedule: Q01DX009 (ip), vehicle: acetone).

Consider `O=C(O)C1(C(=O)O)CCC1.[NH2-].[NH2-].[Pt+2]`, for which the T/C (dose: 15.6 mg/kg/injection, schedule: Q04DX005 (ip), vehicle: water) is 186 % of control; the T/C (dose: 25.92 mg/kg/injection, schedule: Q04DX005 (ip), vehicle: water) is 182 % of control; the T/C (dose: 43.2 mg/kg/injection, schedule: Q04DX005 (ip), vehicle: water) was 194 % of control; the T/C (dose: 72.0 mg/kg/injection, schedule: Q04DX005 (ip), vehicle: water) was 220 % of control; the T/C (dose: 120.0 mg/kg/injection, schedule: Q04DX005 (ip), vehicle: water) was 275 % of control.

Take `C=C1C(=O)O[C@H]2C1[C@H](OC(=O)/C(C)=C\C)CC(=C)[C@@H]1C(=O)[C@H]3O[C@@]3(C)[C@@]12O` (stereo partly drawn): the T/C is 107 % of control (dose: 0.5 mg/kg/injection, schedule: Q01DX009 (ip), vehicle: saline + alcohol); 102 % of control (dose: 1.0 mg/kg/injection, schedule: Q01DX009 (ip), vehicle: saline + alcohol); 104 % of control (dose: 2.0 mg/kg/injection, schedule: Q01DX009 (ip), vehicle: saline + alcohol); 113 % of control (dose: 5.0 mg/kg/injection, schedule: Q01DX009 (ip), vehicle: saline + alcohol).

For the compound `COC(=O)C1=C2Nc3ccccc3C23CCN2C(O)C4(CC5CC67CCOC6CCN6CCC8(c9cccc(OC)c9N(C4)C58O)C67)C4OCCC4(C1)C23` (stereo not drawn), the T/C by setting is: under setting [2], 102 % of control; under setting [3], 100 % of control; under setting [4], 106 % of control; (dose: 25.0 mg/kg/injection, schedule: Q01DX009 (ip), vehicle: Klucel (hydroxypropylcellulose) (HPC)) 99 % of control; (dose: 50.0 mg/kg/injection, schedule: Q01DX009 (ip), vehicle: Klucel (hydroxypropylcellulose) (HPC)) 104 % of control.

Consider `Nc1nc2c(c(=O)[nH]1)N(C=O)C(CNc1ccc(C(=O)N[C@@H](CCC(=O)O)C(=O)O)cc1)CN2` (stereo partly drawn), for which the T/C (dose: 50.0 mg/kg/injection, schedule: Q01DX009 (ip), vehicle: sodium bicarbonate) was 96 % of control; the T/C (dose: 100.0 mg/kg/injection, schedule: Q01DX009 (ip), vehicle: sodium bicarbonate) is 86 % of control; the T/C (dose: 200.0 mg/kg/injection, schedule: Q01DX009 (ip), vehicle: sodium bicarbonate) is 94 % of control.

As for `CCCCCCCCCCCCCCCC(=O)O[C@@H]1[C@@H](C)[C@@]2(O)[C@@H](C=C(CO)C[C@]3(O)C(=O)C(C)=C[C@@H]23)[C@H]2[C@]1(OC(C)=O)[C@]2(C)CO`, the T/C runs as follows: (dose: 62.5 micrograms/kg/injection, schedule: Q01DX009 (ip), vehicle: distilled water + Tween-80) 117 % of control; (dose: 125.0 micrograms/kg/injection, schedule: Q01DX009 (ip), vehicle: distilled water + Tween-80) 121 % of control; (dose: 250.0 micrograms/kg/injection, schedule: Q01DX009 (ip), vehicle: distilled water + Tween-80) 122 % of control.

For `CC(=O)OCC1OC(n2ncc(=O)[nH]c2=O)C(OC(C)=O)C1OC(C)=O` (stereo not drawn), the T/C runs as follows: (dose: 150.0 mg/kg/injection, schedule: Q04DX004 (ip), vehicle: Klucel (hydroxypropylcellulose) (HPC)) 102 % of control; (dose: 300.0 mg/kg/injection, schedule: Q04DX004 (ip), vehicle: Klucel (hydroxypropylcellulose) (HPC)) 102 % of control; (dose: 600.0 mg/kg/injection, schedule: Q04DX004 (ip), vehicle: Klucel (hydroxypropylcellulose) (HPC)) 102 % of control; (dose: 1200.0 mg/kg/injection, schedule: Q04DX004 (ip), vehicle: Klucel (hydroxypropylcellulose) (HPC)) 87 % of control.

Regarding `COC1N(C2CC(O)C(CO)O2)C(=O)NC(=O)C1(F)Br` (stereo not drawn), the T/C is 110 % of control (dose: 25.0 mg/kg/injection, schedule: Q04DX004 (ip), vehicle: saline); 115 % of control (dose: 50.0 mg/kg/injection, schedule: Q04DX004 (ip), vehicle: saline); 116 % of control (dose: 100.0 mg/kg/injection, schedule: Q04DX004 (ip), vehicle: saline); 124 % of control (dose: 400.0 mg/kg/injection, schedule: Q04DX004 (ip), vehicle: saline).

Consider `C=CCOc1cc2c(cc1C(C)c1ccc(OC)cc1)OCO2` (stereo not drawn), for which the T/C is 104 % of control (dose: 25.0 mg/kg/injection, schedule: Q04DX004 (ip), vehicle: Klucel (hydroxypropylcellulose) (HPC)); 118 % of control (dose: 50.0 mg/kg/injection, schedule: Q04DX004 (ip), vehicle: Klucel (hydroxypropylcellulose) (HPC)); 102 % of control (dose: 100.0 mg/kg/injection, schedule: Q04DX004 (ip), vehicle: Klucel (hydroxypropylcellulose) (HPC)); 118 % of control (dose: 200.0 mg/kg/injection, schedule: Q04DX004 (ip), vehicle: Klucel (hydroxypropylcellulose) (HPC)); 214 % of control (dose: 400.0 mg/kg/injection, schedule: Q04DX004 (ip), vehicle: Klucel (hydroxypropylcellulose) (HPC)).

Regarding `COC1CC2C=C(C)/C=C/C=C/C(=O)NC(c3ccccc3)C/C=C/CCC(O)CC(=O)C2=C1O` (stereo not drawn), the T/C under setting [1] was 115 % of control.

Regarding `CS(C)(O)NC(N)=O`, the T/C is 104 % of control (dose: 50.0 mg/kg/injection, schedule: Q04DX004 (ip), vehicle: water); 102 % of control (dose: 100.0 mg/kg/injection, schedule: Q04DX004 (ip), vehicle: water); 104 % of control (dose: 200.0 mg/kg/injection, schedule: Q04DX004 (ip), vehicle: water); 100 % of control (dose: 400.0 mg/kg/injection, schedule: Q04DX004 (ip), vehicle: water); 107 % of control (dose: 800.0 mg/kg/injection, schedule: Q04DX004 (ip), vehicle: water).

For `CCOC(=O)C(N)CSC(=O)NC` (stereo not drawn), the T/C (dose: 75.0 mg/kg/injection, schedule: Q04DX004 (ip), vehicle: saline) is 103 % of control; the T/C (dose: 150.0 mg/kg/injection, schedule: Q04DX004 (ip), vehicle: saline) was 109 % of control; the T/C (dose: 300.0 mg/kg/injection, schedule: Q04DX004 (ip), vehicle: saline) was 110 % of control; the T/C (dose: 600.0 mg/kg/injection, schedule: Q04DX004 (ip), vehicle: saline) was 178 % of control.

`COC1CC(C)C(OC)C2=CC(=O)C=C(NC(=O)/C(C)=C/C=C\C(C)C(OC(N)=O)/C(C)=C\C(C)C1OC)C2=O` (stereo not drawn): the T/C is, setting by setting: (dose: 6.25 mg/kg/injection, schedule: Q04DX004 (ip), vehicle: saline + Tween-80 + alcohol) 124 % of control; (dose: 12.5 mg/kg/injection, schedule: Q04DX004 (ip), vehicle: saline + Tween-80 + alcohol) 124 % of control.

Consider `COc1cc(NCc2ccc3nc(N)nc(N)c3c2C)cc(OC)c1OC` (tested in a mixture with another compound), for which the T/C is 108 % of control (dose: 10.0 mg/kg/injection, schedule: Q04DX005 (ip), vehicle: water) and 120 % of control (dose: 40.0 mg/kg/injection, schedule: Q04DX005 (ip), vehicle: water).
